Measured values as given in PubChem BioAssay (NCI).
Several values for one entry are separate records, joined by “and”; a condition that tells them apart may be missing. Equal values may be shown once.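 Cultured in 96-well plates, cells were exposed to test compound for 48 hours across five concentrations. GI50 marks 50% less growth. TGI denotes the concentration required for complete inhibition of growth.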

Columns and labels:
Experiment in all cases: NCI tumour cell line growth inhibition, 48 h
[1] = system: MCF7 breast
[2] = system: CAKI-1 renal
[3] = system: UACC-62 melanoma
[4] = system: DU-145 prostate
[5] = system: HCC-2998 colon
[6] = system: MOLT-4 leukemia
[7] = system: NCI-H23 lung
[8] = system: IGROV1 ovarian
[9] = system: UO-31 renal
[10] = system: EKVX NSCLC

Structure (SMILES) | GI50 [1] | TGI [1] | GI50 [2] | TGI [2] | GI50 [3] | TGI [3] | GI50 [4] | TGI [4] | GI50 [5] | TGI [5] | GI50 [6] | TGI [6] | GI50 [7] | TGI [7] | GI50 [8] | TGI [8] | GI50 [9] | TGI [9] | GI50 [10] | TGI [10]
O=C(NCCCO)c1cc(Cl)ccc1O | 2.64 µM | 11.9 µM | 6.11 µM | 24.6 µM | 3.09 µM | 15.8 µM | 4.41 µM | 16.1 µM | 3.1 µM | 14.3 µM | 3.22 µM | 15.1 µM | 2.02 µM | 8.3 µM | 3.94 µM | 17 µM | 2.98 µM | 11.3 µM | 2 µM | 18.1 µM
COc1ccc2ccccc2c1C1NC(=O)c2ccccc2N1 (centres undefined) |  | 29.4 µM |  | > 85.2 µM |  |  |  | > 25.2 µM |  | 5.92 µM |  | 9.2 µM |  | > 100 µM |  | > 100 µM |  | 71.2 µM |  | > 100 µM
Oc1ccc(-c2nc3ccccc3s2)cc1CN(Cc1ccccn1)Cc1ccccn1 | 1.19 µM | 15.2 µM | 0.313 µM | 3.36 µM | 1.24 µM | 6.66 µM | 1.26 µM | 20.8 µM | 3.23 µM | 17 µM | 1.42 µM | 13.9 µM | 2.64 µM | 24.3 µM | 1.96 µM | 15.8 µM | 0.0834 µM | 2.49 µM | 1.2 µM | 14.9 µM
Cc1nnc(-c2cccc(-c3ccc(C(=O)NCC4CC4)cc3)c2)o1 | > 25 µM | > 25 µM | > 25 µM | > 25 µM | > 25 µM | > 25 µM | > 25 µM | > 25 µM | > 25 µM | > 25 µM | > 25 µM | > 25 µM | > 25 µM | > 25 µM | > 25 µM | > 25 µM | > 25 µM | > 25 µM | > 25 µM | > 25 µM
CC(C)=CCC/C(C)=C/CC/C(C)=C/CSc1ccccc1C(=O)O | 33.5 µM | 99.1 µM and 56 µM | 28.1 µM | 71.6 µM and 38.3 µM |  | 35 µM and 34 µM | 24.6 µM | 55.1 µM and 33.5 µM | 28.9 µM | 92.4 µM and 33.6 µM |  | 48.9 µM and 57.7 µM | 23.6 µM | 61.4 µM and 36.3 µM | 29.3 µM | 70.5 µM and 35.5 µM | 17.7 µM | 37.1 µM | 29.8 µM | > 84.9 µM and 45.1 µM
COc1cc(-c2cc(O)c(-c3ccc4ccccc4n3)c(=O)[nH]2)cc(OC)c1OC |  | > 100 µM |  | > 87.9 µM |  | > 67.9 µM |  | > 85.6 µM |  | > 100 µM |  | 50.9 µM |  | > 95.5 µM |  | > 78.8 µM |  | > 100 µM |  | > 100 µM
C[As](C)SCC(COC(=O)C(Cl)c1ccccc1)OC(=O)C(Cl)c1ccccc1 (centres undefined) | 0.46 µM | 12.9 µM | 0.506 µM | 6.58 µM | 3.19 µM | 52.9 µM | 1.24 µM | 16.9 µM | 1.72 µM | 4.75 µM | 0.49 µM |  | 0.719 µM | 14.6 µM | 1.93 µM | > 42.6 µM | 1.55 µM | > 44.4 µM | 2.44 µM | 24.3 µM
Oc1ccc(C(c2ccc(O)cc2)c2ccc(O)cc2)cc1 |  | > 100 µM |  | 40 µM |  | 29.8 µM |  | 81.6 µM |  | 40 µM |  | 52.2 µM |  | 45.7 µM |  | 35.2 µM |  | 44.6 µM |  | 46.8 µM
Cn1cnc([N+](=O)[O-])c1Sc1nc(N)nc2c1ncn2C1CC(O)C(CO)O1 (centres undefined) |  | > 54.2 µM |  | > 100 µM |  | > 20.8 µM |  | > 50.8 µM |  | > 100 µM |  | 16.4 µM |  | > 55 µM |  | > 100 µM |  | 44.9 µM |  | > 100 µM
Cn1c2c(c3ccc([N+](=O)[O-])cc3c1=O)C(=O)c1ccccc1-2 | > 100 µM | > 100 µM | 80.5 µM | > 100 µM | > 100 µM | > 100 µM | > 100 µM | > 100 µM | > 100 µM | > 100 µM | > 100 µM | > 100 µM |  |  | > 100 µM | > 100 µM | > 100 µM | > 100 µM | > 100 µM | > 100 µM
CC(=O)OC(C)(C)/C(C)=C/C(=O)O[C@H]1C(=O)O[C@@H]2C[C@H]3[C@H](C)C(=O)C(O[C@@H]4O[C@H](CO)[C@@H](O)[C@H](O)[C@H]4O)=C[C@]3(C)[C@H]3[C@@H](O)[C@H](O)[C@@]4(C(=O)O)OC[C@]32[C@@H]14 | 27.6 µM | > 100 µM | > 100 µM | > 100 µM | > 100 µM | > 100 µM | > 100 µM | > 100 µM | 36.5 µM | > 100 µM | 33.9 µM | > 100 µM | > 100 µM | > 100 µM | > 100 µM | > 100 µM | > 100 µM | > 100 µM | > 100 µM | > 100 µM
Cc1csc(/C=C/C(=O)c2nnn(-c3ccnc4c(C(F)(F)F)cccc34)c2C)c1 | > 100 µM | > 100 µM | 42.4 µM | > 100 µM | 62.2 µM | > 100 µM | > 100 µM | > 100 µM | 43.7 µM | > 100 µM | 22.2 µM | 66.9 µM | 48.9 µM | > 100 µM | > 100 µM | > 100 µM | 94.4 µM | > 100 µM | 69.3 µM | > 100 µM
Cc1nc(-c2cn3c(n2)-c2ccc(-c4cnn(C(C)(C)C(N)=O)c4)cc2OCC3)n(C(C)C)n1 | < 0.01 µM and 0.00991 µM | > 50.5 µM | 1 µM and 1.2 µM | > 100 µM | 0.321 µM and 0.246 µM | 3.64 µM and 4.39 µM | 1.72 µM and 2.15 µM | > 100 µM | 0.895 µM and 0.295 µM | 17.2 µM and > 10 µM | 0.136 µM and 0.282 µM | 22.8 µM and > 10 µM | 13.8 µM and > 5.49 µM | > 100 µM | < 0.0106 µM and 0.00612 µM | 0.0829 µM and 0.0677 µM | 0.185 µM and 0.14 µM | 15.3 µM and > 8.44 µM | 1.48 µM | > 10 µM
O=C1C=CC(=Nc2cc(Br)c(O)c(Br)c2)C=C1 | 7.87 µM | > 100 µM | 26.4 µM | 68 µM | 25.6 µM | 93.2 µM | 30 µM | > 100 µM | 17.5 µM | 34.6 µM | 8.71 µM | > 100 µM | 16 µM | 38.3 µM | 22.7 µM | 68 µM | 22 µM | > 100 µM | 52 µM | > 100 µM
